ChEMBL document CHEMBL4043168, “The design and SAR of a novel series of 2-aminopyridine based LRRK2 inhibitors” (Bioorg Med Chem Lett, 2017)

Assays:
[1] = target: Mitogen-activated protein kinase 13 (Homo sapiens) (UniProt O15264); test: Inhibition of p38d conserved Lys2 (DLKPGNLAVNEDCELK) in human PBMC at 1 uM
[2] = target: RAC-beta serine/threonine-protein kinase (Homo sapiens) (UniProt P31751); test: Inhibition of AKT2 labeling at ATP binding site (GTFGKVILVR) in human PBMC at 0.1 uM
[3] = target: MAP/microtubule affinity-regulating kinase 4 (Homo sapiens) (UniProt Q96L34); test: Inhibition of MARK4 conserved Lys1 (EVAIKIIDK) in human PBMC at 0.1 uM
[4] = target: MAP/microtubule affinity-regulating kinase 3 (Homo sapiens) (UniProt P27448); test: Inhibition of MARK3 conserved Lys2 (DLKAENLLLDADMNIK) in human PBMC at 1 uM
[5] = target: Serine/threonine-protein kinase Nek7 (Homo sapiens) (UniProt Q8TDX7); test: Inhibition of NEK7 conserved Lys1 (AACLLDGVPVALKK) in human PBMC at 1 uM
[6] = Ratio of drug level in mouse brain to plasma at 10 mg/kg, po; type: ADME, organism-based; details: read-out: BPR
[7] = target: Tyrosine-protein kinase Fyn (Homo sapiens) (UniProt P06241); test: Inhibition of FYN activation Loop (QGAKFPIKWTAPEAALYGR) in human PBMC at 0.1 uM
[8] = target: Serine/threonine-protein kinase Chk2 (Homo sapiens) (UniProt O96017); test: Inhibition of CHK2 labeling at conserved Lys1 (VAIKIISK) in human PBMC at 1 uM
[9] = target: T1, Serine/threonine-protein kinase LATS1 (Homo sapiens) (UniProt O95835); test: Inhibition of LATS1 conserved Lys1 (ALYATKTLR) in human PBMC at 1 uM
T1 sequence (whole entry): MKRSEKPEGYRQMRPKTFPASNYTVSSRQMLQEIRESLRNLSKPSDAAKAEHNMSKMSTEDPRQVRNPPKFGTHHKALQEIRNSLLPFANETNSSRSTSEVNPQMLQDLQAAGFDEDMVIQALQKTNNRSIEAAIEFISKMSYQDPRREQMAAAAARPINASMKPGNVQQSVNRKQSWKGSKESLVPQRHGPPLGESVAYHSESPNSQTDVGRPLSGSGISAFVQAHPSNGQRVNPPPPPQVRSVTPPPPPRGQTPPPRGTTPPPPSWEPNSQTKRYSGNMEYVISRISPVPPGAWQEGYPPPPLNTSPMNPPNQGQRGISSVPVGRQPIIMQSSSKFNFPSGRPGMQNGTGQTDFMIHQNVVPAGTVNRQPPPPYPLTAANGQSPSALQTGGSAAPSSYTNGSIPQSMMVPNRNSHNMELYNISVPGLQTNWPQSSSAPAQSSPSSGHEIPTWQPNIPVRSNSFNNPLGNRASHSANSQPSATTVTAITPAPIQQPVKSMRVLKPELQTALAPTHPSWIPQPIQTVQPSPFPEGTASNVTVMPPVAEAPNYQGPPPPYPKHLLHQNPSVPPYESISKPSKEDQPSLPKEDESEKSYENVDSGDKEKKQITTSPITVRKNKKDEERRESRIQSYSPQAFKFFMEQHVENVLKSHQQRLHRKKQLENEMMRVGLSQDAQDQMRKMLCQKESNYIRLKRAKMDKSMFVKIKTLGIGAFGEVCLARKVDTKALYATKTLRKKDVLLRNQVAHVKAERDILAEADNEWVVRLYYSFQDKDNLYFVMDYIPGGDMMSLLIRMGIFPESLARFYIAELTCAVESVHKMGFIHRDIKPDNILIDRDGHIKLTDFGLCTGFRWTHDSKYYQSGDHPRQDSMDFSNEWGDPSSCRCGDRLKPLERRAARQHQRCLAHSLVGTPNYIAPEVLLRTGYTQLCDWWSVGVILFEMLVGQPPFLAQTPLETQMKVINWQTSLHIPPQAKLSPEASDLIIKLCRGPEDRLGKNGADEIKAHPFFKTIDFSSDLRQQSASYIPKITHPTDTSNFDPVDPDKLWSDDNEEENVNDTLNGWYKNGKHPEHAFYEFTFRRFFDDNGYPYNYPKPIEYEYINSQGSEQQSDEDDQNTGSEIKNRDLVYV

[10] = Ratio of unbound drug level in mouse brain to plasma at 10 mg/kg, po; type: ADME, organism-based; details: read-out: K(p,uu,brain)
[11] = target: Serine/threonine-protein kinase/endoribonuclease IRE1 (Homo sapiens) (UniProt O75460); test: Inhibition of IRE1 conserved Lys2 (DLKPHNILISMPNAHGK) in human PBMC at 1 uM
[12] = target: Tyrosine-protein kinase JAK1 (Homo sapiens) (UniProt P23458); test: Inhibition of JAK1 domain1 (QLASALSYLEDKDLVHGNVCTKNLLLAR) in human PBMC at 0.1 uM
[13] = organism: Homo sapiens; test: Inhibition of p70S6K conserved Lys2 (DLKPENIMLNHQGHVK) in human PBMC at 1 uM
[14] = target: Serine/threonine-protein kinase 25 (Homo sapiens) (UniProt O00506); test: Inhibition of YSK1 conserved Lys2 (DIKAANVLLSEQGDVK) in human PBMC at 0.1 uM
[15] = target: Ribosomal protein S6 kinase alpha-4 (Homo sapiens) (UniProt O75676); test: Inhibition of MSK2 domain1 conserved Lys2 (DIKLENILLDSNGHVVLTDFGLSK) in human PBMC at 0.1 uM
[16] = target: Calcium/calmodulin-dependent protein kinase type II subunit alpha (Homo sapiens) (UniProt Q9UQM7); test: Inhibition of CaMK2a labeling at conserved Lys2 (DLKPENLLLASK) in human PBMC at 0.1 uM
[17] = target: Tyrosine-protein kinase Yes (Homo sapiens) (UniProt P07947); test: Inhibition of YES activation Loop (QGAKFPIKWTAPEAALYGR) in human PBMC at 1 uM
[18] = target: Diacylglycerol kinase alpha (Homo sapiens) (UniProt P23743); test: Inhibition of DGKA labeling at activation Loop (IDPVPNTHPLLVFVNPKSGGK) in human PBMC at 1 uM
[19] = target: Serine/threonine-protein kinase WNK1 (Homo sapiens) (UniProt Q9H4A3); test: Inhibition of Wnk1 ATP binding site (GSFKTVYK) in human PBMC at 1 uM
[20] = target: Serine/threonine-protein kinase Nek7 (Homo sapiens) (UniProt Q8TDX7); test: Inhibition of NEK7 conserved Lys2 (DIKPANVFITATGVVK) in human PBMC at 1 uM
[21] = target: RAC-alpha serine/threonine-protein kinase (Homo sapiens) (UniProt P31749); test: Inhibition of AKT1 labeling at ATP binding site (GTFGKVILVK) in human PBMC at 0.1 uM
[22] = target: Tyrosine-protein kinase BTK (Homo sapiens) (UniProt Q06187); test: Inhibition of BTK labeling at activation Loop (YVLDDEYTSSVGSKFPVR) in human PBMC at 1 uM

Chain of Serine/threonine-protein kinase Nek7 (Homo sapiens) (Q8TDX7 whole entry, looked up): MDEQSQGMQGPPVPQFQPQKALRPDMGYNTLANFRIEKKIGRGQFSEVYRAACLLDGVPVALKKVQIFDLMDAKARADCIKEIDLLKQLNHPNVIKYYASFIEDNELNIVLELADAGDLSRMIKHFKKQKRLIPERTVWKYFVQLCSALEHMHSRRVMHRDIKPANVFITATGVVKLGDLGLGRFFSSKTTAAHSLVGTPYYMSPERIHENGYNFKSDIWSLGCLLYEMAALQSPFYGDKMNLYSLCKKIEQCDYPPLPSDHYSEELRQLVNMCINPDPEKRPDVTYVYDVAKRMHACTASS
Chain of MAP/microtubule affinity-regulating kinase 3 (Homo sapiens) (P27448 whole entry, looked up): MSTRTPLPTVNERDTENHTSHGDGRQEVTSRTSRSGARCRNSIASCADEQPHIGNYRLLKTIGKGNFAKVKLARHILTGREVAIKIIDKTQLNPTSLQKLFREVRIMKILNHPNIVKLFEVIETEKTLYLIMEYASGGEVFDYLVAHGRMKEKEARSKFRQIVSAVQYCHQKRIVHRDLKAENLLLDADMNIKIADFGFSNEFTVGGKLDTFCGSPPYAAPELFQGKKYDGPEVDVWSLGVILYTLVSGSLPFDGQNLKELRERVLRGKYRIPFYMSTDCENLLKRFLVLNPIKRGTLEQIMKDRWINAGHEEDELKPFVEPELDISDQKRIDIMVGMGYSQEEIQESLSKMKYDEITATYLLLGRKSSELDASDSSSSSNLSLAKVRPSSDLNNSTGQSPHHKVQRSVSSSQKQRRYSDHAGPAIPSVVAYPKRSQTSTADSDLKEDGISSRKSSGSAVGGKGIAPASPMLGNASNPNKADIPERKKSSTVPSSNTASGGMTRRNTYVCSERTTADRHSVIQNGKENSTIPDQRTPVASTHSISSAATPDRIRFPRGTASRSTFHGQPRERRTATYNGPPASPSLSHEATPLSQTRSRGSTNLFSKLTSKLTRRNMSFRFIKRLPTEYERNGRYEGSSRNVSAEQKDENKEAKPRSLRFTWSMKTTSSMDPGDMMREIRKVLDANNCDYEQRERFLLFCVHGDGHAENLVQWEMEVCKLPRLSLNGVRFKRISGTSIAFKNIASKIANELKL
Chain of Diacylglycerol kinase alpha (Homo sapiens) (P23743 whole entry): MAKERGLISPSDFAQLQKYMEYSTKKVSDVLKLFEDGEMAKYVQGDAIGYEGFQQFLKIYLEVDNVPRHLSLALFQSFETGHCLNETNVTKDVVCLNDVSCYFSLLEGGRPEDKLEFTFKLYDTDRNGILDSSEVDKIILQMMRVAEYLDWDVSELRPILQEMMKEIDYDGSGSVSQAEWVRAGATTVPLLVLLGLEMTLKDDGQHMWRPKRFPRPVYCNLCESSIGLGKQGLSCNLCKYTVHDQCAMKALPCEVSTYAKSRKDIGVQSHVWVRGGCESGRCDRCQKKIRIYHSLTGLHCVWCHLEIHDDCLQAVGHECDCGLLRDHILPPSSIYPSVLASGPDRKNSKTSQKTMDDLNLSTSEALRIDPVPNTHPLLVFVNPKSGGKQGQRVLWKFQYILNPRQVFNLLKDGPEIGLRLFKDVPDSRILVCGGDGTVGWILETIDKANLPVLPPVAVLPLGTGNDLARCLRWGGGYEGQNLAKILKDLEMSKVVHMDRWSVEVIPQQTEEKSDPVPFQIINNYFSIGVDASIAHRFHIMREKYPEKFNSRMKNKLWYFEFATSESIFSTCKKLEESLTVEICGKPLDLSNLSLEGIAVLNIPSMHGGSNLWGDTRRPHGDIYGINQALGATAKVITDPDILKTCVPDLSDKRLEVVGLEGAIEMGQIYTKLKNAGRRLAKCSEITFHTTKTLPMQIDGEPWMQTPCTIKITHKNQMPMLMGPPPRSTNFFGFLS
Chain of Serine/threonine-protein kinase 25 (Homo sapiens) (O00506 whole entry, looked up, the tested form may be a part): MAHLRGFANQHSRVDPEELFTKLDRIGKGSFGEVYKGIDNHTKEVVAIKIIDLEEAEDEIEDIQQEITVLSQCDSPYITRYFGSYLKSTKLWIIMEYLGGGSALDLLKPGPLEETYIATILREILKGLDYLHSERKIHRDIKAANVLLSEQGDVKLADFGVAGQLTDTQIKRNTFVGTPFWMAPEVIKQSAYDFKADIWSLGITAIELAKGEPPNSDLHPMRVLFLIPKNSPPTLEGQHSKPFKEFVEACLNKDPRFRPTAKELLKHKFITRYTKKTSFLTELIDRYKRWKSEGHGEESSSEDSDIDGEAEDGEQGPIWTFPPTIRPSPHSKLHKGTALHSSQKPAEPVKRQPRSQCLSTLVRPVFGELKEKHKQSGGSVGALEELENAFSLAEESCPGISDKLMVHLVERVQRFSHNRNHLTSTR
Chain of Serine/threonine-protein kinase Chk2 (Homo sapiens) (O96017 whole entry): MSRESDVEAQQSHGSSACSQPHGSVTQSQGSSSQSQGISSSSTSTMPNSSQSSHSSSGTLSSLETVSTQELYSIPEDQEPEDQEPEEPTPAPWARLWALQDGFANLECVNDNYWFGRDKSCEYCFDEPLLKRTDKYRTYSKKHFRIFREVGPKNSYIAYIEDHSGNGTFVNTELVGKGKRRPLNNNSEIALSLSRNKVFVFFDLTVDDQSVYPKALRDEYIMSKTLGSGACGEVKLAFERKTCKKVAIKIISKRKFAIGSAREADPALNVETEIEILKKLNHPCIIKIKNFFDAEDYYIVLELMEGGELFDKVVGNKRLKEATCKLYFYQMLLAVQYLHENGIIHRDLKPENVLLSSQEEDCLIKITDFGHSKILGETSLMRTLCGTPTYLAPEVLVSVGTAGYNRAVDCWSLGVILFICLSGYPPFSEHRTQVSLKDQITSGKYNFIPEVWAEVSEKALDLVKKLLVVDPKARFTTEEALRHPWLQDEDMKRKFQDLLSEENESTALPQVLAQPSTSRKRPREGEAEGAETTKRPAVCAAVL
Chain of Serine/threonine-protein kinase/endoribonuclease IRE1 (Homo sapiens) (O75460 19-977 limits assumed): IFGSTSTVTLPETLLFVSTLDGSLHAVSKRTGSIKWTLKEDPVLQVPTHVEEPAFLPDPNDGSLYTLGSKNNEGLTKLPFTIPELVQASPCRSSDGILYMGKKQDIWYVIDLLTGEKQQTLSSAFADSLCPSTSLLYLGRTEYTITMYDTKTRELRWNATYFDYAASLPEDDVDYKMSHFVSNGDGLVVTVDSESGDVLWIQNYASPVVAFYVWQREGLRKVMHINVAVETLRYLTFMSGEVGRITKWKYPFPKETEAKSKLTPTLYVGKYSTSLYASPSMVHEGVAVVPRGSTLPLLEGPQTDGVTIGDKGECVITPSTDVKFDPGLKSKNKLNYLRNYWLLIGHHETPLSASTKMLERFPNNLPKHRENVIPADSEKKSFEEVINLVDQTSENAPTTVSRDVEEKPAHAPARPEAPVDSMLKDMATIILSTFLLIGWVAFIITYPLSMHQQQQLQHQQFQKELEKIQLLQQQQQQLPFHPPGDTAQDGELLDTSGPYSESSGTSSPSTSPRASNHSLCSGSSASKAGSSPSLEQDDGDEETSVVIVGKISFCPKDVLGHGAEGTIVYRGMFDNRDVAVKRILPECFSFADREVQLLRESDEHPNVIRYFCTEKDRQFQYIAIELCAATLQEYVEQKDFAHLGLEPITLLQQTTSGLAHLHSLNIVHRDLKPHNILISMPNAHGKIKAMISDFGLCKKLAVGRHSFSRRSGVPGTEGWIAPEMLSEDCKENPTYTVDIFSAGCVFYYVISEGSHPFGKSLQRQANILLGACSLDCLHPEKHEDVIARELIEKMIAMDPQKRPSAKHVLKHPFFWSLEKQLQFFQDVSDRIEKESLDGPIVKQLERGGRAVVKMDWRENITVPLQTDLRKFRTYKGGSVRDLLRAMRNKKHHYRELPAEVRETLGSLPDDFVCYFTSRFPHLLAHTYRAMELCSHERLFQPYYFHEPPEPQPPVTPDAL
Chain of Calcium/calmodulin-dependent protein kinase type II subunit alpha (Homo sapiens) (Q9UQM7 whole entry): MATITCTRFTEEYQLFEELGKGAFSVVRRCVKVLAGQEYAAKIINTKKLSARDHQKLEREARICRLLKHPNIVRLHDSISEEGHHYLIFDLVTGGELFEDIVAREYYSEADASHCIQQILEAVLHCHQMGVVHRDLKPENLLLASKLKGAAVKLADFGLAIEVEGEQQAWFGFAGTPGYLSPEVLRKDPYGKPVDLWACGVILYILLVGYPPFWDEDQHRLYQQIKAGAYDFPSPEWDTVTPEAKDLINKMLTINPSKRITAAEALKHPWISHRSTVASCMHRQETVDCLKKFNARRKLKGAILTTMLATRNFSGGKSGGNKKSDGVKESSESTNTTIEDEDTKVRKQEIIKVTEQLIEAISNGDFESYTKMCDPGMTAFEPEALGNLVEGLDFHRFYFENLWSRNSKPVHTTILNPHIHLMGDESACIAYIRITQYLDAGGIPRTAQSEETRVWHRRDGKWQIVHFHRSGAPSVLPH
Chain of Tyrosine-protein kinase Fyn (Homo sapiens) (P06241 2-537 limits assumed): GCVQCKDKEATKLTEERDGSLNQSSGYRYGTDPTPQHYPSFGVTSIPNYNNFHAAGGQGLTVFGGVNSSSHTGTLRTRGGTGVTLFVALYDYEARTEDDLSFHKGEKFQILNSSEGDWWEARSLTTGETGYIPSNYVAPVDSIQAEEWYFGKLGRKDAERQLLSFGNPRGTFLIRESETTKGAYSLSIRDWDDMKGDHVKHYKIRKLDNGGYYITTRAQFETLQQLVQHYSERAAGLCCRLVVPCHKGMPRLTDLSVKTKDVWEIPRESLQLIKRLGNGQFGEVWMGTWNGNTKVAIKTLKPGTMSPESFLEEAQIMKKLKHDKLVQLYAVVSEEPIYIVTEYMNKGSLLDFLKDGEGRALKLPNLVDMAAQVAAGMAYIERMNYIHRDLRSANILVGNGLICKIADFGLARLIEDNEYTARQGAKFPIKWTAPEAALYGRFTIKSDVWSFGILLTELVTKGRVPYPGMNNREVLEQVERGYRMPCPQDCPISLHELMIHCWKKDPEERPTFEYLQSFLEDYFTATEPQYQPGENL

CC(C)n1cc(-c2cc(-c3ccc(CN4CCOCC4)cc3)cnc2N)nn1
inhibition [1]: 14%
inhibition [2]: 17.1%
inhibition [3]: -6.7%
inhibition [4]: 28.8%
inhibition [5]: 2.1%
Kp [6]: 1.3
inhibition [7]: -4.4%
inhibition [8]: 9.1%
inhibition [9]: 30.1%
Kp uu [10]: 0.76
inhibition [11]: 26.6%
inhibition [12]: 16.4%
inhibition [13]: 6.9%
inhibition [14]: 0.5%
inhibition [15]: 31.2%
inhibition [16]: -7.5%
inhibition [17]: -2.3%
inhibition [18]: -9.6%
inhibition [19]: 14.2%
inhibition [20]: -9.6%
inhibition [21]: 21%
inhibition [22]: 17.4%
